Measurements taken from patent US20130204033A1, “ANTIPROLIFERATIVE COMPOUNDS, CONJUGATES THEREOF, METHODS THEREFOR, AND USES THEREOF” (Medarex, Inc., priority 2009, published 2013).

Key:
Format in all cases: cell-based, human
HCT-15 = test: 3H thymidine proliferation assay, HCT-15; settings: Homo sapiens, HCT-15; 3H thymidine method, 72 h incubation; read-out: EC50, HCT-15
Method in brief: (§1)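 Cells were seeded at 1.0×10^4 cells/well and treated with 1:3 serial dilutions of free compound or conjugate for 72 h. ^3H-thymidine (1.0 μCi/well) was pulsed for the final 24 h, and uptake was measured by scintillation counting. EC50 is the concentration reducing proliferation by 50%.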

LNCaP = test: 3H thymidine proliferation assay, LNCaP; settings: Homo sapiens, LNCaP; 3H thymidine method, 72 h incubation; read-out: EC50, LNCaP
Method in brief: as §1

MDA-MB-231 = test: 3H thymidine proliferation assay, MDA-MB-231; settings: Homo sapiens, MDA-MB-231; 3H thymidine method, 72 h incubation; read-out: EC50, MDA-MB-231
Method in brief: as §1

U-87 MG = test: 3H thymidine proliferation assay, U-87 MG; settings: Homo sapiens, U-87 MG; 3H thymidine method, 72 h incubation; read-out: EC50, U-87 MG
Method in brief: as §1

ZR-75 = test: 3H thymidine proliferation assay, ZR-75; settings: Homo sapiens, ZR75; 3H thymidine method, 72 h incubation; read-out: EC50, ZR-75
Method in brief: as §1

CEM-C1 = test: 3H thymidine proliferation assay, CEM-C1; settings: Homo sapiens, CEM/C1; 3H thymidine method, 72 h incubation; read-out: EC50, CEM-C1
Method in brief: as §1

Nomo-1 [1] = test: 3H thymidine proliferation assay, Nomo-1; settings: Homo sapiens, NOMO-1; 3H thymidine method, 72 h incubation; read-out: EC50, Nomo-1
Method in brief: as §1

RPMI-8226 = test: 3H thymidine proliferation assay, RPMI-8226; settings: Homo sapiens, RPMI-8226; 3H thymidine method, 72 h incubation; read-out: EC50, RPMI-8226
Method in brief: as §1

Hep3B = test: ATP luminescence proliferation assay, Hep3B; settings: Homo sapiens, ATP luminescence, 48 h incubation, read-out: EC50 Hep3B (48 h)
Method in brief: (§2)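 Free compounds and conjugates tested as 1:3 dilution series on cells seeded 3 h earlier at 1.0×10^3/well. Exposure 48, 72 or 96 h; ATP-based luminescence; EC50 taken at 50% proliferation reduction.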

HPAC = test: ATP luminescence proliferation assay, HPAC; settings: Homo sapiens, ATP luminescence, 72 h incubation, read-out: EC50 HPAC (72 h)
Method in brief: as §2

SKOV3 = test: ATP luminescence proliferation assay, SKOV3; settings: Homo sapiens, SK-OV-3; ATP luminescence, SKOV3, 48 h incubation; read-out: EC50 SKOV3 (48 h)
Method in brief: as §2

786-O = test: ATP luminescence proliferation assay, 786-O; settings: Homo sapiens, 786-0; ATP luminescence, 786-O, 48 h incubation; read-out: EC50 786-O (48 h)
Method in brief: (§3)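 Cells seeded at 1.0×10^3 cells/well for 3 h, then exposed to 1:3 serial dilutions of free compounds or conjugates for 48, 72 or 96 h, as noted. ATP measured by luminescent cell viability kit; EC50 taken as concentration reducing proliferation by 50%.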

UO-31 = test: ATP luminescence proliferation assay, UO-31; settings: Homo sapiens; ATP luminescence, UO-31, 48 h incubation; read-out: EC50 UO-31 (48 h)
Method in brief: as §2

DMS53 = test: ATP luminescence proliferation assay, DMS53; settings: Homo sapiens, DMS-53; ATP luminescence, DMS53, 72 h incubation; read-out: EC50 DMS53 (72 h)
Method in brief: as §2

SK-BR3 = test: ATP luminescence proliferation assay, SK-BR3; settings: Homo sapiens, SK-BR-3; ATP luminescence, SK-BR3, 72 h incubation; read-out: EC50 SK-BR3 (72 h)
Method in brief: as §2

HL-60 = test: ATP luminescence proliferation assay, HL-60; settings: Homo sapiens; ATP luminescence, HL-60, 72 h incubation; read-out: EC50 HL-60 (72 h)
Method in brief: as §3

Nomo-1 [2] = test: ATP luminescence proliferation assay, Nomo-1; settings: Homo sapiens; ATP luminescence, Nomo-1, 72 h incubation; read-out: EC50 Nomo-1 (72 h)
Method in brief: as §2

SW-480 = test: ATP luminescence proliferation assay, SW-480; settings: Homo sapiens; ATP luminescence, SW480, 96 h incubation; read-out: EC50 SW480 (96 h)
Method in brief: as §2

- EC50 (HCT-15): 149 nM
- EC50 (LNCaP): 130 nM
- EC50 (MDA-MB-231): 133 nM
- EC50 (U-87 MG): 106 nM
- EC50 (RPMI-8226): 68 nM
- EC50 (Hep3B): 443 nM
- EC50 (SKOV3): 674 nM
- EC50 (786-O): 360 nM
- EC50 (SK-BR3): 441 nM
- EC50 (HL-60): 147 nM
- EC50 (SW-480): 215 nM
Compound: COc1cccc2c1C(=O)c1c(O)c3c(c(O)c1C2=O)C[C@@](O)(C(=O)CO)C[C@@H]3O[C@H]1C[C@H](N)[C@H](O)[C@H](C)O1 [Dox, doxorubicin, reference compound]
- EC50 (ZR-75): 794 nM
- EC50 (CEM-C1): 144 nM
- EC50 (Nomo-1 [1]): 105 nM
- EC50 (HPAC): 215 nM
- EC50 (UO-31): 908 nM
- EC50 (DMS53): 755 nM
- EC50 (Nomo-1 [2]): 338 nM
